{
  "source": "paper PMC6934184",
  "about": "“Selective DNA-PKcs inhibition extends the therapeutic index of localized radiotherapy and chemotherapy” (The Journal of Clinical Investigation, 2019)",
  "target": "T1, PAK3 (Homo sapiens, UniProt O75914)",
  "T1 construct": "purchased Thermo Fisher Scientific (Life Technologies) SelectScreen",
  "T1 sequence (O75914 whole entry)": "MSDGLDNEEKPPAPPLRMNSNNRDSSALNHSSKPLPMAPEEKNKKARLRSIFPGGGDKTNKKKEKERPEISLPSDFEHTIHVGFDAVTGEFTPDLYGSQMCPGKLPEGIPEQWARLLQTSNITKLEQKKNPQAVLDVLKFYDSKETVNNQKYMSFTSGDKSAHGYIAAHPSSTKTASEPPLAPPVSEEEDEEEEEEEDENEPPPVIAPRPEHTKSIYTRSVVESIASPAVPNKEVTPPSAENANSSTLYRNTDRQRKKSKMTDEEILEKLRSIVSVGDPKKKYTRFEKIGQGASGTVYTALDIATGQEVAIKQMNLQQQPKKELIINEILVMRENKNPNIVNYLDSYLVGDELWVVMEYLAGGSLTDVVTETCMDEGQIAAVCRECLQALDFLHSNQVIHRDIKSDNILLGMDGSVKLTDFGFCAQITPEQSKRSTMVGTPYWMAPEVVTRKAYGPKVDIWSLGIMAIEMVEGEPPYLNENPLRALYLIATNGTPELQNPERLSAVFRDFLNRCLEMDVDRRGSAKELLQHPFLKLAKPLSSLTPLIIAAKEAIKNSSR",
  "test": "SelectScreen Z'LYTE",
  "assay_type": "biochemical",
  "summary_of_the_method": "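NU5455 was profiled across the SelectScreen Broad panel of kinase activity and binding assays. Z'LYTE reactions such as CSF1R ran at apparent Km ATP, while the Adapta CAMK1 assay used ATP listed as 10. Values are given as percent.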",
  "data": [
    {"smiles": "CN(C(=O)CN1CCOCC1)c1ccc2sc3c(-c4cccc5c(=O)cc(N6CC7CCC(C6)O7)oc45)cccc3c2c1", "note": "[NU5455]", "values": [
      {"measurement": "inhibition at 1 µM", "value": -42.6, "unit": "%"}
    ]}
  ]
}
